In patent US7718651B2, “Inhibitors of FtsZ and uses thereof” (priority 2002, dated 2010):

system: M. tuberculosis H37Rv; assay: microbe, parasite or virus in culture; type: cell-based; conditions: not given

SMILES | % Inh [%]
CCOC(=O)Nc1cc2c(c(N)n1)N=C(c1ccccc1)[C@H](C)N2 [Compound A129] | 28
CCOC(=O)Nc1cc(NCc2ccccc2)c(N)c(N)n1 [Compound A154] | 12

same assay, conditions: M. tuberculosis H37Rv, screen concentration 12.5 g/ml [sic], Table 8

SMILES | % Inh [%]
CCOC(=O)Nc1cc(NC(c2ccccc2)c2ccccc2)c([N+](=O)[O-])c(NC/C(=N/O)c2ccc(Cl)cc2)n1 [Compound A130] | 28
CCOC(=O)Nc1cc2c(c(N)n1)N=C(c1ccccc1OC)CO2 [Compound A131] | 25
CCOC(=O)Nc1cc2c(nc(SCc3ccccc3)n2/N=C/c2ccccc2)c(N)n1 [Compound A132] | 24
CCOC(=O)Nc1cc(NC(C)C(=O)COc2ccccc2)c([N+](=O)[O-])c(N)n1 (stereo not shown) [Compound A133] | 23
CCOC(=O)Nc1cc(NC(c2ccccc2)c2ccccc2)c2nc(O)[nH]c2n1 [Compound A134] | 23
CCOC(=O)Nc1cc(NCC(=O)CCc2ccccc2)c([N+](=O)[O-])c(N)n1 [Compound A135] | 22
CCOC(=O)Nc1cc(NC/C(CCc2ccccc2)=N\O)c([N+](=O)[O-])c(N)n1 [Compound A136] | 21
CCOC(=O)Nc1cc2oc(-c3ccc(Cl)cc3)nc2c(N(CCc2ccccc2)Cc2ccccc2)n1 [Compound A137] | 21
CCOC(=O)Nc1cc2c(c(N)n1)N=C(CN(C)c1ccc(OC)cc1)CN2 [Compound A138] | 20
CCOC(=O)Nc1cc(NC(C)C(=O)c2ccc3c(c2)OCO3)c([N+](=O)[O-])c(N)n1 (stereo not shown) [Compound A140] | 19
CCOC(=O)Nc1cc(N)c2nc(-c3ccccc3)c(N)nc2n1 [Compound A141] | 19
CCOC(=O)Nc1cc(N)c([N+](=O)[O-])c(NC(c2ccccc2)c2ccccc2)n1 [Compound A142] | 18
CCOC(=O)Nc1cc(NCC(=O)CN(C)c2ccccc2)c([N+](=O)[O-])c(N)n1 [Compound A143] | 17
CCOC(=O)Nc1cc(NC(C)/C(=N/O)c2ccc(NC)cc2)c([N+](=O)[O-])c(N)n1 (stereo not shown) [Compound A144] | 16
CCOC(=O)Nc1cc2[nH]c(-c3ccc(C)cc3)nc2c(N(CCc2ccccc2)Cc2ccccc2)n1 [Compound A145] | 16
CCOC(=O)Nc1cc(N)c2ncc(-c3cc(OC)c(OC)c(OC)c3)nc2n1 [Compound A147] | 15
CCOC(=O)Nc1cc(N)c2nc(-c3ccccc3)cnc2n1 [Compound A148] | 14
CCOC(=O)Nc1cc(NC(C)/C(=N/O)c2ccc(O)cc2)c([N+](=O)[O-])c(N)n1 (stereo not shown) [Compound A149] | 14
CCOC(=O)Nc1nc(NC(=O)OCC)c([N+](=O)[O-])c(NC(C)/C(=N\O)c2ccccc2)c1[N+](=O)[O-] (stereo not shown) [Compound A150] | 14
CCOC(=O)Nc1cc2[nH]c(-c3ccc4c(c3)OCO4)nc2c(N(CCc2ccccc2)Cc2ccccc2)n1 [Compound A151] | 14
CCOC(=O)Nc1cc2[nH]c(-c3ccc(O)cc3)nc2c(N)n1 [Compound A152] | 13
CCOC(=O)Nc1cc(NC(C)C(O)COc2ccccc2)c([N+](=O)[O-])c(N)n1 (stereo not shown) [Compound A155] | 11
CCOC(=O)Nc1cc(N)c(N)c(N)n1 [Compound A156] | 10
CCOC(=O)Nc1cc2c(c(N)n1)N=C(c1ccc(OC)cc1)CS2 [Compound A158] | 10
CCOC(=O)Nc1cc2ncc(-c3ccccc3)nc2c(NC(C)=O)n1 [Compound A159] | 10
CCCCNC(=O)Oc1ccc(C2=Nc3c(cc(NC(=O)OCC)nc3N)N[C@H]2C)cc1 [Compound A160] | 10
CCOC(=O)Nc1cc(NC(C)C(=O)c2ccccc2)c([N+](=O)[O-])c(N)n1 (stereo not shown) [Compound A161] | 9

SMILES | % Inh [%]
CCOC(=O)Nc1cc(N)c([N+](=O)[O-])c(N)n1 [Compound A162] | 8
CCOC(=O)Nc1cc(NC(C)C(O)c2ccc3c(c2)OCO3)c([N+](=O)[O-])c(N)n1 (stereo not shown) [Compound A163] | 8
CCOC(=O)Nc1cc2c(c(N)n1)N=C(c1ccc(O)cc1)[C@H](C)N2 [Compound A164] | 8
COC(=O)Nc1cc(Cl)c([N+](=O)[O-])c(NC(=O)OC)n1 [Compound A165] | 8
CCOC(=O)Nc1cc2c(c(N)n1)N=C(c1ccc(O)cc1)[C@@H](C)N2 [Compound A166] | 8
CCOC(=O)Nc1cc2c(c(N)n1)N=C(c1cccc(N)c1)C(C)N2 (stereo not shown) [Compound A167] | 7
CCOC(=O)Nc1cc(NCC(O)CN(C)c2ccccc2)c(N)c(NC(=O)OCC)n1 (stereo not shown) [Compound A169] | 7
CCOC(=O)Nc1cc2c(c(N)n1)N=C(c1ccc(O)cc1)[C@H](C)N2 [Compound A170] | 7
CCCCNC(=O)Oc1ccc(C2=Nc3c(cc(NC(=O)OCC)nc3N)N[C@@H]2C)cc1 [Compound A171] | 7
CCOC(=O)Nc1cc(NC(C)/C(=N/O)c2ccccc2)c([N+](=O)[O-])c(N)n1 (stereo not shown) [Compound A172] | 5
CCOC(=O)Nc1cc(N[C@H](C)[C@H](O)c2ccc(O)cc2)c([N+](=O)[O-])c(N)n1 [Compound A173] | 5
CCCCC(Nc1cc(NC(=O)OCC)nc(N)c1N)C(C)O (stereo not shown) [Compound A174] | 5
CCOC(=O)Nc1cc(NC(c2ccccc2)c2ccccc2)c([N+](=O)[O-])c(NC(=O)OCC)n1 [Compound A175] | 5
COC(=O)Nc1cc(NC(C)/C(=N/O)c2ccccc2)c([N+](=O)[O-])c(N)n1 (stereo not shown) [Compound A176] | 4
COC(=O)Nc1cc(NC(C)/C(=N/O)c2cccc([N+](=O)[O-])c2)c([N+](=O)[O-])c(N)n1 (stereo not shown) [Compound A177] | 4
CCOC(=O)Nc1cc(N[C@@H](C)[C@@H](O)c2ccc(O)cc2)c([N+](=O)[O-])c(N)n1 [Compound A178] | 4
CCOC(=O)Nc1cc(NC(C)C(O)c2ccc(O)cc2)c(N)c(N)n1 (stereo not shown) [Compound A179] | 4
CCCCC(=O)C(C)Nc1cc(NC(=O)OC)nc(N)c1[N+](=O)[O-] (stereo not shown) [Compound A180] | 3
CCCCC(O)C(C)Nc1cc(NC(=O)OCC)nc(N)c1N (stereo not shown) [Compound A181] | 3
CCOC(=O)Nc1cc(NC/C(=N/O)c2ccc(OC)cc2)c([N+](=O)[O-])c(N)n1 [Compound A182] | 2
CCOC(=O)Nc1cc(NC(C)C(=O)c2ccc(O)cc2)c([N+](=O)[O-])c(N)n1 (stereo not shown) [Compound A183] | 2
CCOC(=O)Nc1cc(Cl)cc(NC(=O)OCC)n1 [Compound A185] | 2
CCOC(=O)Nc1cc(NC(C)/C(=N/O)c2ccc(O)cc2)c([N+](=O)[O-])c(N)n1 (stereo not shown) [Compound A186] | 1
CCOC(=O)Nc1cc(Cl)c2ncc(-c3ccc(Cl)cc3)nc2n1 [Compound A187] | 1
O=C(Nc1cc(Cl)cc(NC(=O)OCc2ccccc2)n1)OCc1ccccc1 [Compound A188] | 1
CCOC(=O)Nc1cc2c(c(N)n1)N=C(c1cccc(OC)c1)CO2 [Compound A190] | 0
CCOC(=O)Nc1cc2c(c(N)n1)N=C(c1ccc(OC)cc1)CO2 [Compound A192] | 0

SMILES | % Inh [%]
CCOC(=O)Nc1cc2c(c(N)n1)N=C(c1ccc(OC)c(OC)c1)CO2 [Compound A193] | 0
CCOC(=O)Nc1nc(NC(=O)OCC)c2c(c1N)NC(C)C(c1ccccc1)=N2 (stereo not shown) [Compound A194] | 0
CCOC(=O)Nc1cc2[nH]c(=O)c(-c3ccccc3)nc2c(NC(c2ccccc2)c2ccccc2)n1 [Compound A195] | 0
CCOC(=O)Nc1cc2[nH]c(=O)c(-c3ccccc3)nc2c(N)n1 [Compound A196] | 0
CCOC(=O)Nc1cc2c(c(N)n1)N=C(c1ccc(O)cc1)C(C)N2 (stereo not shown) [Compound A197] | 0
CCOC(=O)Nc1cc(N[C@H](C)C(=O)c2ccccc2)c([N+](=O)[O-])c(N)n1 [Compound A198] | 0
CCOC(=O)Nc1cc2c3c(n1)[nH]c(=S)n3c(=S)n2N [Compound A199] | 0
CCOC(=O)Nc1cc2c([nH]c(=S)n2N)c(N)n1 [Compound A200] | 0
COC(=O)Nc1cc(Cl)cc(NC(=O)OC)n1 [Compound A201] | 0
CCOC(=O)Nc1nc(NC(=O)OCC)c([N+](=O)[O-])c(Cl)c1[N+](=O)[O-] [Compound A202] | 0
CCOC(=O)Nc1cc2[nH]cnc2c(Cl)n1 [Compound A203] | 0
CCOC(=O)Nc1cc(N(C)/N=C/c2ccccc2)c([N+](=O)[O-])c(N)n1 [Compound A204] | 0
CCOC(=O)Nc1cc(NNC=O)c([N+](=O)[O-])c(N)n1 [Compound A205] | 0
CCOC(=O)Nc1cc2[nH]nnc2c(Cl)n1 [Compound A206] | 0
CCOC(=O)Nc1ccccn1 [Compound A207] | 0
CCOC(=O)Nc1cc(NCC(=O)c2ccc(C)c(C)c2)c([N+](=O)[O-])c(N)n1 [Compound A208] | 0
CCOC(=O)Nc1cc(N(C)N)c([N+](=O)[O-])c(N)n1 [Compound A209] | 0
CCOC(=O)Nc1cc(NC/C(=N/O)c2ccc(C)cc2)c([N+](=O)[O-])c(N)n1 [Compound A210] | 0
CCOC(=O)Nc1cc(NCC(=O)c2ccc(F)cc2)c([N+](=O)[O-])c(N)n1 [Compound A211] | 0
CCOC(=O)Nc1cc(NC/C(=N/O)c2ccc(OC)c(OC)c2OC)c([N+](=O)[O-])c(N)n1 [Compound A212] | 0
CCOC(=O)Nc1cc2c(c(N)n1)[N+](=O)OC(c1ccccc1)N[N-]2 (stereo not shown) [Compound A214] | 0
CCOC(=O)Nc1cc(Cl)c2nn[nH]c2n1 [Compound A215] | 0
CCOC(=O)Nc1cc(NC(c2ccccc2)c2ccccc2)c2nc[nH]c2n1 [Compound A216] | 0
CCOC(=O)Nc1cc(N)c2nc[nH]c2n1 [Compound A217] | 0
CCOC(=O)Nc1cc(N)c2nnsc2n1 [Compound A218] | 0
CCOC(=O)Nc1cc2[nH]c(-c3ccccc3)nc2c(Cl)n1 [Compound A219] | 0
